Measured values as given in patent US8476064B2, “Inhibition assay method and device for detection of antibiotics” (Charm Sciences, Inc., priority 2006, dated 2013).

Tests used:
[1] = test system: B.st. spores; assay: Antibiotic detection test in spiked milk, Trizma/succinate culture of Example 7 (Table 5); type: cell-based, Bacillus (Geobacillus) Stearothermophilus; conditions: for 16 hr Result / % Pos (16 hr Result): 16 hours later; for % Pos (Result) / Result: immediately after test completion
Method: A Trizma/Succinate solution was prepared by adding 2.5 grams Trizma Base and 6 grams Succinate to 100 mL of reverse osmosis/deionized water (RO/DI Water) in a 125 mL flask. 40 milligrams of BCP (see example 1 for BCP preparation) was then added to a 50 mL conical tube and 25 mL of the Trizma/Succinate solution was added to the 40 milligrams BCP and mixed.
The media was prepared by dissolving 5 grams glucose and 1 gram Mueller Hinton Broth in 100 mL RO/DI Water. 1.2 mL of a 0.01 mg/mL solution of trimethoprim in RO/DI water was added to the media. 20 mL of the BCP/Trizma/Succinate preparation was added to the media and the media was sterile filtered through a 0.45 micron filter and cooled to 4 degrees C.
0.3 grams Difco Bacto-Agar (Item #0140-01), 0.225 NaCl and 17 mL of RO/DI water was combined and mixed and heated the mixture to 95° C. The mixture was removed from the heat and allowed it to cool to 75° C. and then 6 mL media (with BCP/Tris) was added and mixed for 5 minutes. The mixture was cooled to 57° C. and 2 mL spore (concentration of 1 billion cfu/mL) was added and mixed for 5 minutes. 0.200 mL was dispensed into the bottom of each vial.
In test operation 200 microliters of various milk samples, spiked with known concentrations of antibiotics, were pipetted into vials and incubated for the prescribed time (in this test 2 hours 30 minutes) and prescribed temperature (64 degrees C.+/−2 degrees C.). Results were recorded immediately after test completion and 16 hours later. Incubation was in various Charm Inctronic I incubators. Concentrations listed are in parts per billion (ppb). 4 samples were run at each concentration except 16 negative samples were run and 2 samples each for 3 ppb pen G and amoxicillin. Abbreviations are pencillin G (PenG); sulfamethazine (SMZ); sulfadimethoxine (SDM); tylosin (TY); gentamicin (G); oxytetracycline (OT); pirlimycin (Pirl); amoxicillin (Amox); ampicillin (Amp); cloxacillin (Clox); ceftiofur sodium (Ceft); cephaprin (Ceph); tilmicosin (Til); sulfadoxine (SDN); neomycin (Neo).

[2] = test system: B.st. spores; assay: Single service kidney swab microbial growth inhibition test, culture of Example 1, with or without beta-lactam receptor; type: cell-based, Bacillus (Geobacillus) Stearothermophilus; conditions: 12.5 ppb penicillin G; Receptor added dried on swab; note: key: positive (+); negative (−)

gentamicin
100%: % Pos (16 hr Result) ([1]; milk spiked at 300 ppb) | % Pos (Result) ([1]; milk spiked at 300 ppb) | % Pos (16 hr Result) ([1]; milk spiked at 400 ppb) | % Pos (Result) ([1]; milk spiked at 400 ppb)
Pos: 16 hr Result ([1]; milk spiked at 300 ppb) | Result ([1]; milk spiked at 300 ppb) | 16 hr Result ([1]; milk spiked at 400 ppb) | Result ([1]; milk spiked at 400 ppb)

Cc1cc(C)nc(NS(=O)(=O)c2ccc(N)cc2)n1 [SMZ, sulfamethazine]
100%: % Pos (16 hr Result) ([1]; milk spiked at 100 ppb) | % Pos (Result) ([1]; milk spiked at 100 ppb) | % Pos (16 hr Result) ([1]; milk spiked at 200 ppb) | % Pos (Result) ([1]; milk spiked at 200 ppb)
Pos: 16 hr Result ([1]; milk spiked at 100 ppb) | Result ([1]; milk spiked at 100 ppb) | 16 hr Result ([1]; milk spiked at 200 ppb) | Result ([1]; milk spiked at 200 ppb)

CC[C@H]1OC(=O)C[C@@H](O)[C@H](C)[C@@H](O[C@@H]2O[C@H](C)[C@@H](O[C@H]3C[C@@](C)(O)[C@@H](O)[C@H](C)O3)[C@H](N(C)C)[C@H]2O)[C@@H](CC=O)C[C@@H](C)C(=O)/C=C/C(C)=C/[C@@H]1CO[C@@H]1O[C@H](C)[C@@H](O)[C@@H](OC)[C@H]1OC [TY, tylosin]
Pos: 16 hr Result ([1]; milk spiked at 40 ppb) | Result ([1]; milk spiked at 40 ppb) | 16 hr Result ([1]; milk spiked at 50 ppb) | Result ([1]; milk spiked at 50 ppb)
100%: % Pos (16 hr Result) ([1]; milk spiked at 40 ppb) | % Pos (Result) ([1]; milk spiked at 40 ppb) | % Pos (16 hr Result) ([1]; milk spiked at 50 ppb) | % Pos (Result) ([1]; milk spiked at 50 ppb)

CN(C)[C@@H]1C(O)=C(C(N)=O)C(=O)[C@@]2(O)C(O)=C3C(=O)c4c(O)cccc4[C@@](C)(O)[C@H]3[C@H](O)[C@@H]12 [OT, oxytetracycline]
0%: % Pos (16 hr Result) ([1]; milk spiked at 200 ppb) | % Pos (Result) ([1]; milk spiked at 200 ppb)
100%: % Pos (16 hr Result) ([1]; milk spiked at 300 ppb) | % Pos (Result) ([1]; milk spiked at 300 ppb)

COc1cc(NS(=O)(=O)c2ccc(N)cc2)nc(OC)n1 [SDM, sulfadimethoxine]
Pos: 16 hr Result ([1]; milk spiked at 25 ppb) | Result ([1]; milk spiked at 25 ppb) | 16 hr Result ([1]; milk spiked at 50 ppb) | Result ([1]; milk spiked at 50 ppb)
100%: % Pos (16 hr Result) ([1]; milk spiked at 25 ppb) | % Pos (Result) ([1]; milk spiked at 25 ppb) | % Pos (16 hr Result) ([1]; milk spiked at 50 ppb) | % Pos (Result) ([1]; milk spiked at 50 ppb)

CC1(C)S[C@@H]2[C@H](NC(=O)Cc3ccccc3)C(=O)N2[C@H]1C(=O)O [PenG, penicillin G]
Pos: 16 hr Result ([1]; milk spiked at 3 ppb) | Result ([1]; milk spiked at 3 ppb) | 16 hr Result ([1]; milk spiked at 4 ppb) | Result ([1]; milk spiked at 4 ppb)
100%: % Pos (16 hr Result) ([1]; milk spiked at 3 ppb) | % Pos (Result) ([1]; milk spiked at 3 ppb) | % Pos (16 hr Result) ([1]; milk spiked at 4 ppb) | % Pos (Result) ([1]; milk spiked at 4 ppb)
−: test result [2]
